Results published in patent publication US11752125B2, “Anti-neuroinflammatory and protective compounds in Achillea fragrantissima” (THE STATE OF ISRAEL MINISTRY OF AGRICULTURE & RURAL …, priority 2013, dated 2023).

Key:
MEK1 = assay: SNP-induced MEK1 phosphorylation in N2a cells (ELISA); type: cell-based; conditions: concomitant treatment 40 min, total protein not affected
Procedure: N2a cells were treated concomitantly with SNP and TTF for 40 min. Cells were extracted and the levels of phosphorylated or total MEK1 were determined by specific ELISA kits. The results are shown in FIG. 20 are the mean±SEM of two different experiments […].

astrocytes = assay: Cytotoxicity of the compound by itself to astrocytes (LDH); type: cell-based; conditions: all concentrations tested, 20 h
Procedure: Astrocytes were re-plated at 24-well poly-D-lysine-coated plastic plates at a density of 1×10^5/well, in DMEM w/o Phenol Red containing 2% FBS, 2 mM glutamine, 100 U/mL penicillin, and 100 μg/mL streptomycin. H2O2 in the presence or absence of TTF were added, and cell viability was determined using a commercial colorimetric assay (Roche Applied Science, Germany) according to the manufacturer's instructions. This assay is based on the measurement of lactate dehydrogenase (LDH) activity released from the cytosol of damaged cells into the incubation medium. The absorbance was measured at 492 nm in a plate reader. The percentage of cytotoxicity was calculated according to the following equation, where the “ATriton-x treated cells” is the maximum releasable LDH in the cells:
Astrocytes were treated with different concentrations of TTF and cell death was determined 20 h later by the LDH method. The results are means±SEM of two experiments (n=10) and are shown in FIG. 2C. ***P<0.001, compared to untreated cells.

IL-1β = IL-1β transcripts in LPS-stimulated microglial cells (real-time PCR); type: cell-based, rat; conditions: 20 μg/mL; LPS 4.5 ng/mL, 5 h
Procedure: (§1) RNA was extracted by the RNeasy Plus Mini Kit (Qiagen, Hilden, Germany) according to the manufacturer's instructions. Genomic DNA was removed from the RNA samples by using 50 units of RNase-free DNaseI at 37° C. for 1 h. RNA ([…]) was converted to cDNA using the Thermo Scientific Verso cDNA kit (Thermo Fisher Scientific Inc) following the manufacturer's protocol. The cDNA was used for quantitative real-time PCR amplification with TaqMan chemistry (Applied Biosystems) using Rat MMP9, TNFα, IL1β, iNOS, COX2 pre-designed TaqMan Gene Expression Assay from Applied Biosystems (Rn00579162_m1, Rn00562055_m1, Rn00580432_m1, Rn00561646_m1, Rn01483828_m1, respectively). […] All results from three technical replicates were normalized relative to α-Tubulin (Rn01532518.g1) and GAPDH (Rn01775763.g1), respectively, and expressed as relative expression ratios calculated (relative quantity, RQ) using the comparative method and based on the data that were created by the ABI PRISM 7700 Sequence Detection System (using version 1.6 software).
(§2) Procedure 23. Measurement of IL-1Beta, TNFalpha, iNOS, COX-2 and MMP-9 Transcripts in LPS-Activated Microglial Cells by Quantitative Real-Time PCR Analysis. • 1. […]
Microglial cells were treated with 20 μg/mL of achillolide A, followed by stimulation with LPS (4.5 ng/mL). […] The results are expressed as percentages relative to LPS-stimulated cells. […]

MMP-9 = MMP-9 transcripts in LPS-activated microglial cells (real-time PCR); type: cell-based, rat; conditions: LPS 4.5 ng/mL; quantitative real-time PCR
Procedure: as §1, §2
Microglial cells were treated with the indicated concentrations of achillolide A, followed by stimulation with LPS (4.5 ng/mL). […] The levels of MMP-9 transcripts were measured by quantitative real-time PCR. […]

COc1cc(-c2oc3cc(OC)c(OC)c(O)c3c(=O)c2O)ccc1O [TTF, 3,5,4′-trihydroxy-6,7,3′-trimethoxyflavone]
effect on SNP-induced phosphorylation of MEK1 (MEK1): significantly inhibited
cytotoxicity of the flavonoid by itself to astrocytes (astrocytes): < 11%

C=C1CCC2=C(CO)C(=O)O[C@H]2/C=C(\C)[C@H](OC(C)=O)CC1=O [achillolide A]
effect on LPS-induced IL-1β transcript levels (IL-1β): significantly inhibited
effect on MMP-9 transcripts (MMP-9): down-regulates
